Results as given in patent US20140356416A1, “LIPOSOMAL DRUG ENCAPSULATION” (priority 2011, published 2014).

How the values were obtained:
[1] = Reverse pH gradient drug encapsulation efficiency in liposomes; format: physicochemical; conditions: for drug encapsulation: reverse pH gradient technology, FIG. 10
Procedure: The dried lipid film was hydrated with a buffer containing either ammonium phosphate, ammonium sulfate, sodium phosphate, or sodium sulfate (300 mM, pH 7.4) and vortexed for 1 minute to remove any adhering lipid film. Sonication in a bath sonicator (ULTRAsonik 28X) for 1 minute at room temperature produced multilamellar vesicles (MLV). MLVs were then sonicated with a Ti-probe (Branson 450 sonifier) for 2 minutes to produce small unilamellar vesicles (SUV), indicated by the formation of a translucent solution. Extrusion through a 100 nm pore size polycarbonate filter (Whatman) was the final stage of a stepwise series of extrusions to reduce SUV size.
The prepared liposomes with internal buffer at pH 3 or 7.4 were passed through a Sephadex G-50 column equilibrated with HEPES buffered saline (HBS; 20 mM HEPES, 150 mM NaCl, pH 7.4) to exchange the external buffer. […] The solution was heated at 50° C. for 20 minutes, left to stand 4 hours at room temperature, and then applied to a Sephadex G-50 column and eluted with MilliQ water.

U87 cells = assay: In vivo anti-tumor activity, very large U87 flank tumors (180-200 mm^3); conditions: treatment over two weeks
[2] = Acute toxicity of free staurosporine at high dose; format: in vivo; conditions: 5 mg/Kg
Text: Future, more comprehensive studies will use even lower doses of staurosporine alone, and in combination with other agents.

[3] = 0.8 mg/Kg injected as free drug, 'would very likely be' (Gurley et al.); cited from earlier work

drug encapsulation [1]	SMILES	body weight (U87 cells)	tumor growth (U87 cells; relative to PBS (p<0.004))	acute toxicity [2]	fraction cleared after one circulatory pass [3] [%]	liposomal loading capacity, peak value ([1]; drug to lipid ratio 0.09 (mole/mole)) [%]	increase of encapsulation when a gradient existed ([1]; internal buffer pH 7.4 versus pH 3, external buffer pH 3) [fold]	encapsulation rate ([1]; internal pH 5, external pH 7.4)
good efficacy	COc1cc2ncnc(Nc3ccc(F)c(Cl)c3)c2cc1OCCCN1CCOCC1 [Gefitinib, N-(3-chloro-4-fluoro-phenyl)-7-methoxy-6-(3-morpholin-4-ylpropoxy)quinazolin-4-amine]							
good efficacy	O=c1cc(N2CCOCC2)oc2c(-c3ccccc3)cccc12 [LY29004]							
	CN[C@@H]1C[C@H]2O[C@@](C)([C@@H]1OC)n1c3ccccc3c3c4c(c5c6ccccc6n2c5c31)C(=O)NC4 [staurosporine, (9S,10R,11R,13R)-2,3,10,11,12,13-Hexahydro-10-methoxy-9-methyl-11-(methylamino)-9,13-epoxy-1H,9H-diindolo[1,2,3-gh:3′,2′,1′-1m]pyrrolo[3,4-j][1,7]benzodiazonin-1-one]	body weight did decline	no demonstrable effect	acutely lethal	99	70	14	very low
